From US8686044B2, “Amide derivative, pest control agent containing the amide derivative, and use of the amide derivative” (Mitsui Chemicals Agro, Inc., priority 2008, dated 2014) come the findings set out here.

Holding throughout (assay type): in vivo
One test relates to Laodelphax striatellus. Put plainly: Pesticidal test against Laodelphax striatellus (rice seedling spray). The note with it: 144 h, concentration 100 ppm, 3-stage larvae, examined after 6 days, 25° C., read-out: pesticidal rate. As for the experimental part: Pesticidal Test against Laodelphax striatellus
2.5 ml of an acetone solution in which a test compound had been prepared at a predetermined concentration was sprayed on rice seedlings, air-dried, and then put into a glass tube having a diameter of 3 cm and a height of 13 cm, having water therein, and 3-stage larvae of Laodelphax striatellus were released and the tube was capped. They were left to stand in a thermostatic chamber at 25° C., and the numbers of the living pests and the dead pests were examined after 6 days. The test was carried out with ten larvae per group in two replicates.

For a further test, the system named is Plutella xylostella. Nature of the test: Pesticidal test against Plutella xylostella (cabbage leaf dip). Particulars: foliar, 144 h, 2-stage larvae, examined after 6 days, 25° C., read-out: pesticidal rate; for pest or weed control at 1 ppm: concentration 1 ppm; for pest or weed control at 10 ppm: concentration 10 ppm. The method, then: (§1) Pesticidal Test against Plutella xylostella A piece of a cabbage leaf was immersed for 30 seconds in a chemical solution in which a test compound had been prepared at a predetermined concentration, and air-dried, and then put into a 7 cm polyethylene cup having a filter paper laid on the bottom thereof, and 2-stage larvae of Plutella xylostella were released. They were left to stand in a thermostatic chamber at 25° C., and the numbers of the living pests and the dead pests were examined after 6 days. The test was carried out with five larvae per group in two replicates. Further, the above compound (A) was used as a comparative compound.

For another test, the system named is Spodoptera litura. Nature of the test: Pesticidal test against Spodoptera litura (cabbage leaf dip). The note with it: foliar, 144 h, 2-stage larvae, examined after 6 days, 25° C., read-out: pesticidal rate; for pest or weed control at 1 ppm: concentration 1 ppm; for pest or weed control at 10 ppm: concentration 10 ppm. As for the experimental part: as §1, with “Spodoptera litura” for “Plutella xylostella”, “following” for “above”, “(A) disclosed in the pamphlet of International Publication WO 2005/073165” for “(A)”

Regarding `N#Cc1ccc(C(=O)Nc2cc(C(=O)Nc3c(Cl)cc(C(F)(C(F)(F)F)C(F)(F)F)cc3C(F)(F)F)ccc2C#N)cc1` [1-491], in the test with Laodelphax striatellus, the pest or weed control at 100 ppm was not below 70%. In addition, the pest or weed control at 1 ppm in the test with Plutella xylostella and in the test on Spodoptera litura was not below 70% throughout.
On to `N#Cc1ccc(C(=O)Nc2c(Br)cc(C(F)(C(F)(F)F)C(F)(F)F)cc2C(F)(F)F)cc1NC(=O)c1ccccc1` [1-627, 3-benzamide-N-(2-bromo-4-(perfluoropropan-2-yl)-6-(trifluoromethyl)phenyl)-4-cyanobenzamide], for which the pest or weed control at 100 ppm in the test on Laodelphax striatellus is not below 70%. Further, the pest or weed control at 1 ppm with Plutella xylostella and in the test on Spodoptera litura was not below 70% each time.
With `CN(C(=O)c1ccc(C#N)cc1)c1cc(C(=O)Nc2c(Cl)cc(C(F)(C(F)(F)F)C(F)(F)F)cc2C(F)(F)F)ccc1C#N` [2-491, N-(2-chloro-4-(perfluoropropan-2-yl)-6-(trifluoromethyl)phenyl)-4-cyano-3-(4-cyano-N-methylbenzamide)benzamide], the pest or weed control at 100 ppm with Laodelphax striatellus is not below 70%. For the same molecule, the pest or weed control at 1 ppm in the test with Plutella xylostella and in the test with Spodoptera litura was not below 70% in each case.
As for `N#Cc1cccc(C(=O)Nc2cccc(C(=O)Nc3c(Br)cc(C(F)(C(F)(F)F)C(F)(F)C(F)(F)F)cc3Br)c2)c1` (stereo not drawn) [6-45], the pest or weed control at 100 ppm in the test with Laodelphax striatellus was not below 70%. Moreover, the pest or weed control at 1 ppm in the test with Plutella xylostella and with Spodoptera litura was not below 70% throughout.
Consider `O=C(Nc1c(Br)cc(C(F)(C(F)(F)F)C(F)(F)C(F)(F)F)cc1Br)c1cccc(NC(=O)c2cccnc2Cl)c1` (stereo not drawn) [6-57], for which the pest or weed control at 100 ppm with Laodelphax striatellus was not below 70%. The pest or weed control at 1 ppm with Plutella xylostella and in the test on Spodoptera litura was not below 70% each time.
As for `O=C(Nc1cccc(C(=O)Nc2c(I)cc(C(F)(C(F)(F)F)C(F)(F)C(F)(F)F)cc2I)c1)c1ccccc1` (stereo not drawn) [6-71], the pest or weed control at 100 ppm in the test on Laodelphax striatellus was not below 70%. In addition, the pest or weed control at 1 ppm in the test on Plutella xylostella and with Spodoptera litura was not below 70% each time.
Turning to `N#Cc1ccc(C(=O)Nc2cccc(C(=O)Nc3c(I)cc(C(F)(C(F)(F)F)C(F)(F)C(F)(F)F)cc3I)c2)cc1` (stereo not drawn) [6-79, 3-(4-cyanobenzamide)-N-(2,6-diiodo-4-(perfluorobutan-2-yl)phenyl)benzamide], the pest or weed control at 100 ppm with Laodelphax striatellus is not below 70%. Further, the pest or weed control at 1 ppm with Plutella xylostella and in the test on Spodoptera litura was not below 70% each time.
Turning to `O=C(Nc1c(Cl)cc(C(F)(C(F)(F)F)C(F)(F)F)cc1C(F)(F)F)c1cccc(NC(=O)c2cccnc2Cl)c1` [6-147], in the test with Laodelphax striatellus, the pest or weed control at 100 ppm was not below 70%. Also, the pest or weed control at 1 ppm in the test on Plutella xylostella and in the test on Spodoptera litura was not below 70% in each case.
As for `O=C(Nc1cccc(C(=O)Nc2c(Br)cc(C(F)(C(F)(F)F)C(F)(F)F)cc2C(F)(F)F)c1)c1ccccc1` [6-268], the pest or weed control at 100 ppm with Laodelphax striatellus is not below 70%. Moreover, the pest or weed control at 1 ppm in the test with Plutella xylostella and with Spodoptera litura was not below 70% in each case.
Consider `O=C(Nc1c(Br)cc(C(F)(C(F)(F)F)C(F)(F)F)cc1C(F)(F)F)c1cccc(NC(=O)c2ccccc2F)c1` [6-269], for which the pest or weed control at 100 ppm in the test with Laodelphax striatellus is not below 70%. In addition, in the test with Plutella xylostella, the pest or weed control at 10 ppm is not below 70%. Also, the pest or weed control at 1 ppm with Spodoptera litura is not below 70%.
With `O=C(Nc1cccc(C(=O)Nc2c(Br)cc(C(F)(C(F)(F)F)C(F)(F)F)cc2C(F)(F)F)c1)c1cccc(F)c1` [6-270], the pest or weed control at 100 ppm in the test on Laodelphax striatellus is not below 70%. In addition, the pest or weed control at 1 ppm in the test with Plutella xylostella and in the test on Spodoptera litura was not below 70% each time.
For the molecule `O=C(Nc1c(Br)cc(C(F)(C(F)(F)F)C(F)(F)F)cc1C(F)(F)F)c1cccc(NC(=O)c2c(F)cccc2F)c1` [6-290], the pest or weed control at 100 ppm in the test on Laodelphax striatellus is not below 70%. Besides, the pest or weed control at 1 ppm in the test on Plutella xylostella and with Spodoptera litura was not below 70% each time.
With `CN(C(=O)c1ccccc1F)c1cccc(C(=O)Nc2c(Br)cc(C(F)(C(F)(F)F)C(F)(F)F)cc2C(F)(F)F)c1` [7-269], in the test on Plutella xylostella, the pest or weed control at 10 ppm was not below 70%. Also, the pest or weed control at 1 ppm in the test on Spodoptera litura was not below 70%.
On to `CN(C(=O)c1cccc(F)c1)c1cccc(C(=O)Nc2c(Br)cc(C(F)(C(F)(F)F)C(F)(F)F)cc2C(F)(F)F)c1` [7-270], for which the pest or weed control at 10 ppm with Plutella xylostella was not below 70%. Moreover, in the test on Spodoptera litura, the pest or weed control at 1 ppm is not below 70%.
As for `CN(C(=O)c1ccc(F)cc1)c1cccc(C(=O)Nc2c(Br)cc(C(F)(C(F)(F)F)C(F)(F)F)cc2C(F)(F)F)c1` [7-271], the pest or weed control at 1 ppm in the test with Plutella xylostella and in the test on Spodoptera litura was not below 70% in each case.
For the molecule `CN(C(=O)c1c(F)cccc1F)c1cccc(C(=O)Nc2c(Br)cc(C(F)(C(F)(F)F)C(F)(F)F)cc2C(F)(F)F)c1` [7-290], the pest or weed control at 1 ppm with Plutella xylostella and with Spodoptera litura was not below 70% throughout.
`CN(C(=O)c1cc(C#N)cc(C#N)c1)c1cccc(C(=O)Nc2c(Br)cc(C(F)(C(F)(F)F)C(F)(F)F)cc2C(F)(F)F)c1` [7-299]: the pest or weed control at 1 ppm in the test with Plutella xylostella and with Spodoptera litura was not below 70% each time.
Consider `CN(C(=O)c1ccc(C#N)cc1F)c1cccc(C(=O)Nc2c(Br)cc(C(F)(C(F)(F)F)C(F)(F)F)cc2C(F)(F)F)c1` [7-300], for which the pest or weed control at 1 ppm in the test with Plutella xylostella and in the test on Spodoptera litura was not below 70% in each case.
As for `CN(C(=O)c1ccccc1F)c1cccc(C(=O)Nc2c(I)cc(C(F)(C(F)(F)F)C(F)(F)F)cc2C(F)(F)F)c1` [7-425], the pest or weed control at 1 ppm in the test with Plutella xylostella and in the test with Spodoptera litura was not below 70% in each case.
As to `CN(C(=O)c1ccccc1)c1cccc(C(=O)Nc2c(C(F)(F)F)cc(C(F)(C(F)(F)F)C(F)(F)F)cc2C(F)(F)F)c1` [7-804], the pest or weed control at 10 ppm with Plutella xylostella was not below 70%. Besides, the pest or weed control at 1 ppm with Spodoptera litura is not below 70%.
As for `CN(C(=O)c1cccc(C#N)c1)c1cccc(C(=O)Nc2c(C(F)(F)F)cc(C(F)(C(F)(F)F)C(F)(F)F)cc2C(F)(F)F)c1` [7-824], the pest or weed control at 1 ppm in the test with Plutella xylostella and with Spodoptera litura was not below 70% each time.
As to `CN(C(=O)c1ccc(C#N)cc1)c1cccc(C(=O)Nc2c(Cl)cc(C(F)(C(F)(F)F)C(F)(F)F)cc2Cl)c1F` [7-969], the pest or weed control at 1 ppm in the test on Plutella xylostella and with Spodoptera litura was not below 70% each time.
In the case of `CN(C(=O)c1cccnc1Cl)c1cc(C(=O)Nc2c(Br)cc(C(F)(C(F)(F)F)C(F)(F)F)cc2C(F)(F)F)ccc1F` [7-3384], the pest or weed control at 1 ppm with Plutella xylostella and in the test on Spodoptera litura was not below 70% in each case.
On to `CN(C(=O)c1ccc(F)cc1)c1cccc(C(=O)Nc2c(I)cc(C(F)(C(F)(F)F)C(F)(F)C(F)(F)F)cc2I)c1` (stereo not drawn) [7-5905], for which the pest or weed control at 1 ppm with Plutella xylostella and with Spodoptera litura was not below 70% each time.
`CN(C(=O)c1ccc(S(C)(=O)=O)cc1)c1cccc(C(=O)Nc2c(Br)cc(C(F)(C(F)(F)F)C(F)(F)F)cc2C(F)(F)F)c1` [7-5908]: the pest or weed control at 10 ppm in the test with Plutella xylostella and in the test with Spodoptera litura was not below 70% throughout.
`COC(=O)c1cc(C#N)cc(C(=O)N(C)c2cccc(C(=O)Nc3c(Br)cc(C(F)(C(F)(F)F)C(F)(F)F)cc3C(F)(F)F)c2F)c1` [7-5910]: the pest or weed control at 1 ppm in the test with Plutella xylostella and in the test on Spodoptera litura was not below 70% throughout.
Take `CN(C(=O)c1ccccc1)c1cccc(C(=O)Nc2c(Br)cc(C(F)(F)C(F)(F)F)cc2C(F)(F)F)c1` [7-5911]: the pest or weed control at 10 ppm in the test with Plutella xylostella and in the test with Spodoptera litura was not below 70% throughout.
For the molecule `CN(C(=O)c1cccc(NC(=O)c2ccccc2)c1)c1c(Br)cc(C(F)(C(F)(F)F)C(F)(F)F)cc1C(F)(F)F` [8-268], the pest or weed control at 1 ppm in the test with Plutella xylostella and with Spodoptera litura was not below 70% each time.
Regarding `CN(C(=O)c1cccc(NC(=O)c2cccc(C#N)c2)c1)c1c(Br)cc(C(F)(C(F)(F)F)C(F)(F)F)cc1C(F)(F)F` [8-288], the pest or weed control at 1 ppm in the test on Plutella xylostella and with Spodoptera litura was not below 70% in each case.
Turning to `CN(C(=O)c1cccc(NC(=O)c2ccccc2)c1)c1c(C(F)(F)F)cc(C(F)(C(F)(F)F)C(F)(F)F)cc1C(F)(F)F` [8-804], in the test on Plutella xylostella, the pest or weed control at 10 ppm was not below 70%. In the test with Spodoptera litura, the pest or weed control at 1 ppm was not below 70%.
Take `CN(C(=O)c1cccc(NC(=O)c2cccc(C#N)c2)c1)c1c(C(F)(F)F)cc(C(F)(C(F)(F)F)C(F)(F)F)cc1C(F)(F)F` [8-824]: the pest or weed control at 1 ppm in the test on Plutella xylostella and in the test on Spodoptera litura was not below 70% each time.
For `CN(C(=O)c1ccccc1F)c1nc(C(=O)Nc2c(Br)cc(C(F)(C(F)(F)F)C(F)(F)F)cc2C(F)(F)F)cs1` [27-628, N-(2-bromo-4-(perfluoropropan-2-yl)-6-(trifluoromethyl)phenyl)-2-(2-fluoro-N-methylbenzamide)thiazole-4-carboxamide], the pest or weed control at 10 ppm in the test on Plutella xylostella and in the test with Spodoptera litura was not below 70% each time.
Consider `CN(C(=O)c1cccnc1Cl)c1nc(C(=O)Nc2c(Br)cc(C(F)(C(F)(F)F)C(F)(F)F)cc2C(F)(F)F)cs1` [27-663], for which, in the test with Plutella xylostella, the pest or weed control at 10 ppm was not below 70%. The pest or weed control at 1 ppm in the test on Spodoptera litura was not below 70%.
